According to the supplement of paper PMC11451515:

Columns and labels:
Details in all cases: 48 h
NOMO1 [1] = test: cell viability relative to DMSO control; higher = less cytotoxic
In short: (§1)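 Viability was expressed as a per-plate percentage of DMSO wells, with cell-free wells as background. Leukemia cells (NOMO1 or SEM at 500 cells/well, P12-Ichikawa at 1000 cells/well) were adapted for at least four passages in each medium and seeded in 1536-well plates (5 μl). Library compounds in DMSO were pin-dosed over an 11-point threefold series from 47 μM to 0.79 nM, and CellTiter-Glo One luminescence was read after 48 h at 37°C.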

P12-Ichikawa [2] = test: as above
In short: as §1

SEM cells [3] = test: as above
In short: as §1

NOMO1 [4] = test: AUC of viability dose-response curve (% viability x log10 dose units); higher = less sensitive
In short: (§2)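 Library compounds in DMSO were applied for 48 h at 37°C at 11 threefold doses (47 μM to 0.79 nM) to medium-adapted leukemia cells in 1536-well plates holding 500 or 1000 cells/well. Luminescence from CellTiter-Glo One was normalised plate by plate against DMSO and cell-free wells. Area under the curve came from trapezoidal integration of a log-logistic fit, after scaling curves that rose above full viability and discarding those that failed quality control. The fit had four parameters and used log10 doses.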

P12-Ichikawa [5] = test: as above
In short: as §2

SEM cells [6] = test: as above
In short: as §2

N#CC1(c2ccc(NC(=O)c3cccnc3NCc3ccncc3)cc2)CCCC1
cell viability [%]
Details | NOMO1 [1] | P12-Ichikawa [2] | SEM cells [3]
HPLM + 10% dialyzed FBS, 0.000781 µM | 112 | 120 | 120
HPLM + 10% dialyzed FBS, 0.00234 µM | 110 | 123 | 123
HPLM + 10% dialyzed FBS, 0.00702 µM | 110 | 113 | 123
HPLM + 10% dialyzed FBS, 0.0211 µM | 121 | 116 | 118
HPLM + 10% dialyzed FBS, 0.0632 µM | 114 | 116 | 116
HPLM + 10% dialyzed FBS, 0.19 µM | 98.4 | 110 | 102
HPLM + 10% dialyzed FBS, 0.569 µM | 108 | 108 | 124
HPLM + 10% dialyzed FBS, 1.71 µM | 95.2 | 104 | 113
HPLM + 10% dialyzed FBS, 5.12 µM | 103 | 106 | 91
HPLM + 10% dialyzed FBS, 15.4 µM | 91.4 | 77.8 | 80.7
HPLM + 10% dialyzed FBS, 46.1 µM | 93.1 | 102 | 81.4
RPMI 5 mM glucose + 10% FBS, 0.000781 µM | 99.5 | 119 | –
RPMI 5 mM glucose + 10% FBS, 0.00234 µM | 106 | 108 | –
RPMI 5 mM glucose + 10% FBS, 0.00702 µM | 99.2 | 123 | –
RPMI 5 mM glucose + 10% FBS, 0.0211 µM | 102 | 107 | –
RPMI 5 mM glucose + 10% FBS, 0.0632 µM | 113 | 122 | –
RPMI 5 mM glucose + 10% FBS, 0.19 µM | 106 | 111 | –
RPMI 5 mM glucose + 10% FBS, 0.569 µM | 97.8 | 113 | –
RPMI 5 mM glucose + 10% FBS, 1.71 µM | 104 | 109 | –
RPMI 5 mM glucose + 10% FBS, 5.12 µM | 103 | 102 | –
RPMI 5 mM glucose + 10% FBS, 15.4 µM | 105 | 110 | –
RPMI 5 mM glucose + 10% FBS, 46.1 µM | 98.1 | 98.9 | –
RPMI 5 mM glucose + 10% dialyzed FBS, 0.000781 µM | 110 | 118 | –
RPMI 5 mM glucose + 10% dialyzed FBS, 0.00234 µM | 105 | 122 | –
RPMI 5 mM glucose + 10% dialyzed FBS, 0.00702 µM | 116 | 115 | –
RPMI 5 mM glucose + 10% dialyzed FBS, 0.0211 µM | 115 | 109 | –
RPMI 5 mM glucose + 10% dialyzed FBS, 0.0632 µM | 120 | 113 | –
RPMI 5 mM glucose + 10% dialyzed FBS, 0.19 µM | 109 | 114 | –
RPMI 5 mM glucose + 10% dialyzed FBS, 0.569 µM | 104 | 103 | –
RPMI 5 mM glucose + 10% dialyzed FBS, 1.71 µM | 106 | 113 | –
RPMI 5 mM glucose + 10% dialyzed FBS, 5.12 µM | 113 | 103 | –
RPMI 5 mM glucose + 10% dialyzed FBS, 15.4 µM | 104 | 96.3 | –
RPMI 5 mM glucose + 10% dialyzed FBS, 46.1 µM | 99.8 | 90.8 | –

AUC of viability dose-response curve
Details | NOMO1 [4] | P12-Ichikawa [5] | SEM cells [6]
HPLM + 10% dialyzed FBS | 442 | 437 | 442
RPMI 5 mM glucose + 10% FBS | 475 | 461 | 431
RPMI 5 mM glucose + 10% dialyzed FBS | 463 | 435 | 412

Cc1cc(-c2nnc3n2CCCCC3)c(C)n1-c1ccccc1
cell viability [%]
Details | NOMO1 [1] | P12-Ichikawa [2] | SEM cells [3]
HPLM + 10% dialyzed FBS, 0.000781 µM | 116 | 120 | 110
HPLM + 10% dialyzed FBS, 0.00234 µM | 122 | 117 | 116
HPLM + 10% dialyzed FBS, 0.00702 µM | 136 | 122 | 115
HPLM + 10% dialyzed FBS, 0.0211 µM | 131 | 119 | 123
HPLM + 10% dialyzed FBS, 0.0632 µM | 121 | 118 | 117
HPLM + 10% dialyzed FBS, 0.19 µM | 125 | 116 | 118
HPLM + 10% dialyzed FBS, 0.569 µM | 148 | 118 | 120
HPLM + 10% dialyzed FBS, 1.71 µM | 132 | 117 | 119
HPLM + 10% dialyzed FBS, 5.12 µM | 117 | 115 | 98.7
HPLM + 10% dialyzed FBS, 15.4 µM | 120 | 117 | 117
HPLM + 10% dialyzed FBS, 46.1 µM | 108 | 104 | 115
RPMI 5 mM glucose + 10% FBS, 0.000781 µM | 112 | – | 53.2
RPMI 5 mM glucose + 10% FBS, 0.00234 µM | 112 | – | 124
RPMI 5 mM glucose + 10% FBS, 0.00702 µM | 109 | – | 103
RPMI 5 mM glucose + 10% FBS, 0.0211 µM | 122 | – | 107
RPMI 5 mM glucose + 10% FBS, 0.0632 µM | 115 | – | 95.6
RPMI 5 mM glucose + 10% FBS, 0.19 µM | 120 | – | 107
RPMI 5 mM glucose + 10% FBS, 0.569 µM | 118 | – | 124
RPMI 5 mM glucose + 10% FBS, 1.71 µM | 114 | – | 126
RPMI 5 mM glucose + 10% FBS, 5.12 µM | 117 | – | 109
RPMI 5 mM glucose + 10% FBS, 15.4 µM | 116 | – | 115
RPMI 5 mM glucose + 10% FBS, 46.1 µM | 110 | – | 102
RPMI 5 mM glucose + 10% dialyzed FBS, 0.000781 µM | 115 | 125 | 113
RPMI 5 mM glucose + 10% dialyzed FBS, 0.00234 µM | 120 | 119 | 114
RPMI 5 mM glucose + 10% dialyzed FBS, 0.00702 µM | 110 | 118 | 140
RPMI 5 mM glucose + 10% dialyzed FBS, 0.0211 µM | 114 | 125 | 131
RPMI 5 mM glucose + 10% dialyzed FBS, 0.0632 µM | 124 | 118 | 95.3
RPMI 5 mM glucose + 10% dialyzed FBS, 0.19 µM | 113 | 119 | 127
RPMI 5 mM glucose + 10% dialyzed FBS, 0.569 µM | 116 | 124 | 136
RPMI 5 mM glucose + 10% dialyzed FBS, 1.71 µM | 121 | 126 | 135
RPMI 5 mM glucose + 10% dialyzed FBS, 5.12 µM | 111 | 122 | 114
RPMI 5 mM glucose + 10% dialyzed FBS, 15.4 µM | 122 | 109 | 126
RPMI 5 mM glucose + 10% dialyzed FBS, 46.1 µM | 120 | 111 | 107

AUC of viability dose-response curve
Details | NOMO1 [4] | P12-Ichikawa [5] | SEM cells [6]
HPLM + 10% dialyzed FBS | 464 | 464 | 470
RPMI 5 mM glucose + 10% FBS | 473 | 462 | 424
RPMI 5 mM glucose + 10% dialyzed FBS | 470 | 470 | 472

CN(C)CC[C@H](CSc1ccccc1)Nc1ccc([S+](=O)([O-])NC(=O)c2ccc(N3CCN(Cc4ccccc4-c4ccc(Cl)cc4)CC3)cc2)cc1[N+](=O)[O-]
cell viability [%]
Details | NOMO1 [1] | P12-Ichikawa [2] | SEM cells [3]
HPLM + 10% dialyzed FBS, 0.000781 µM | 140 | 118 | 116
HPLM + 10% dialyzed FBS, 0.00234 µM | 119 | 123 | 126
HPLM + 10% dialyzed FBS, 0.00702 µM | 125 | 120 | 111
HPLM + 10% dialyzed FBS, 0.0211 µM | 108 | 110 | 82.7
HPLM + 10% dialyzed FBS, 0.0632 µM | 127 | 115 | 64.8
HPLM + 10% dialyzed FBS, 0.19 µM | 92.5 | 97.8 | 23.7
HPLM + 10% dialyzed FBS, 0.569 µM | 96.7 | 85.4 | 10.8
HPLM + 10% dialyzed FBS, 1.71 µM | 102 | 56.7 | 8.48
HPLM + 10% dialyzed FBS, 5.12 µM | 52.7 | 14.9 | 6.85
HPLM + 10% dialyzed FBS, 15.4 µM | 50.2 | 7.53 | 6.25
HPLM + 10% dialyzed FBS, 46.1 µM | 55 | 4.59 | 3.88
RPMI 5 mM glucose + 10% FBS, 0.000781 µM | 108 | 127 | 103
RPMI 5 mM glucose + 10% FBS, 0.00234 µM | 118 | 116 | 118
RPMI 5 mM glucose + 10% FBS, 0.00702 µM | 109 | 116 | 110
RPMI 5 mM glucose + 10% FBS, 0.0211 µM | 107 | 115 | 102
RPMI 5 mM glucose + 10% FBS, 0.0632 µM | 99.5 | 120 | 73.8
RPMI 5 mM glucose + 10% FBS, 0.19 µM | 98.8 | 115 | 27.7
RPMI 5 mM glucose + 10% FBS, 0.569 µM | 89.5 | 108 | 11.1
RPMI 5 mM glucose + 10% FBS, 1.71 µM | 80.7 | 79.9 | 6.52
RPMI 5 mM glucose + 10% FBS, 5.12 µM | 50.8 | 24.2 | 4.95
RPMI 5 mM glucose + 10% FBS, 15.4 µM | 49.6 | 12.5 | 3.98
RPMI 5 mM glucose + 10% FBS, 46.1 µM | 60.6 | 4.92 | 2.62
RPMI 5 mM glucose + 10% dialyzed FBS, 0.000781 µM | 115 | 124 | 128
RPMI 5 mM glucose + 10% dialyzed FBS, 0.00234 µM | 123 | 128 | 91.3
RPMI 5 mM glucose + 10% dialyzed FBS, 0.00702 µM | 102 | 124 | 99.7
RPMI 5 mM glucose + 10% dialyzed FBS, 0.0211 µM | 114 | 124 | 81.7
RPMI 5 mM glucose + 10% dialyzed FBS, 0.0632 µM | 98.3 | 119 | 57.4
RPMI 5 mM glucose + 10% dialyzed FBS, 0.19 µM | 85.3 | 117 | 19.7
RPMI 5 mM glucose + 10% dialyzed FBS, 0.569 µM | 62.7 | 95.5 | 11.3
RPMI 5 mM glucose + 10% dialyzed FBS, 1.71 µM | 46.1 | 76.1 | 8.96
RPMI 5 mM glucose + 10% dialyzed FBS, 5.12 µM | 33.9 | 15.8 | 5.67
RPMI 5 mM glucose + 10% dialyzed FBS, 15.4 µM | 30.6 | 8.77 | 4.98
RPMI 5 mM glucose + 10% dialyzed FBS, 46.1 µM | 42.5 | 4.13 | 3.36

AUC of viability dose-response curve
Details | NOMO1 [4] | P12-Ichikawa [5] | SEM cells [6]
HPLM + 10% dialyzed FBS | 363 | 321 | 195
RPMI 5 mM glucose + 10% FBS | 388 | 354 | 218
RPMI 5 mM glucose + 10% dialyzed FBS | 324 | 338 | 191
